Patent US6737383B1, “Herbicidal oxadiazolidines” (priority 1999, dated 2004)

Columns and labels:
wild oat = test: Test B pre/postemergence wild oat; type: in vivo, Avena fatua; conditions: for Wild oats plant response rating: scale of 0 to 10 where 0 is no effect and 10 is complete control
In short: (§1)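 Test chemicals in a non-phytotoxic solvent mixture with surfactant were sprayed preemergence onto planted seeds and postemergence onto plants 2 to 18 cm tall (1- to 4-leaf stage). After twelve to sixteen days in a greenhouse, injury was visually rated against untreated controls from 0 (no effect) to 10 (complete control).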

giant foxtail = test: Test B pre/postemergence giant foxtail; type: in vivo, Setaria faberii; conditions: for Giant foxtail plant response rating: scale of 0 to 10 where 0 is no effect and 10 is complete control
In short: as §1

cocklebur = test: Test B pre/postemergence cocklebur; type: in vivo, Xanthium strumarium; conditions: for Cocklebur plant response rating: scale of 0 to 10 where 0 is no effect and 10 is complete control
In short: as §1

velvetleaf = test: Test B pre/postemergence velvetleaf; type: in vivo, Abutilon theophrasti; conditions: for Velvetleaf plant response rating: scale of 0 to 10 where 0 is no effect and 10 is complete control
In short: as §1

blackgrass = test: Test B pre/postemergence blackgrass; type: in vivo, Alopecurus myosuroides; conditions: for Blackgrass plant response rating: scale of 0 to 10 where 0 is no effect and 10 is complete control
In short: as §1

corn = test: Test B pre/postemergence corn; type: in vivo, Zea mays; conditions: for Corn plant response rating: scale of 0 to 10 where 0 is no effect and 10 is complete control
In short: as §1

rape = test: Test B pre/postemergence rape; type: in vivo, Brassica napus; conditions: for Rape plant response rating: scale of 0 to 10 where 0 is no effect and 10 is complete control
In short: as §1

sugar beet = test: Test B pre/postemergence sugar beet; type: in vivo, Beta vulgaris; conditions: for Sugarbeets plant response rating: scale of 0 to 10 where 0 is no effect and 10 is complete control
In short: as §1

smallflower flatsedge = test: Test B flood test smallflower flatsedge; type: in vivo, Cyperus difformis
In short: (§2)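 Each value is a visual injury score relative to controls, with 10 meaning complete control and 0 no effect. Evaluation took place twelve to sixteen days after the 2-leaf-stage plants were treated and kept in the greenhouse.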

bamyardgrass = test: Test B flood test barnyardgrass; type: in vivo, Echinochloa crus-galli
In short: as §2

surinam grass = test: Test B pre/postemergence surinam grass; type: in vivo, Brachiaria decumbens; conditions: for B. signalgrass plant response rating: scale of 0 to 10 where 0 is no effect and 10 is complete control
In short: as §1

pigweed = test: Test B pre/postemergence pigweed; type: in vivo, Amaranthus retroflexus; conditions: for Redroot pigweed plant response rating: scale of 0 to 10 where 0 is no effect and 10 is complete control
In short: as §1

crabgrass = test: Test B pre/postemergence crabgrass; type: in vivo, Digitaria sanguinalis; conditions: for Crabgrass plant response rating: scale of 0 to 10 where 0 is no effect and 10 is complete control
In short: as §1

morningglory = test: Test B pre/postemergence morningglory; type: in vivo, Ipomoea hederacea; conditions: for Morningglory plant response rating: scale of 0 to 10 where 0 is no effect and 10 is complete control
In short: as §1

soybean = test: Test B pre/postemergence soybean; type: in vivo, Glycine max; conditions: for Soybean plant response rating: scale of 0 to 10 where 0 is no effect and 10 is complete control
In short: as §1

purple nutsedge = test: Test B pre/postemergence purple nutsedge; type: in vivo, Cyperus rotundus; conditions: for Nutsedge plant response rating: scale of 0 to 10 where 0 is no effect and 10 is complete control
In short: as §1

[1] = Postemergence, Rate 125 g/ha, scale 0 to 10, 0 is no effect, 10 is complete control
[2] = Postemergence, Rate 250 g/ha, scale 0 to 10, 0 is no effect, 10 is complete control
[3] = Preemergence, Rate 62 g/ha, scale 0 to 10 (0 no effect, 10 complete control)
[4] = Rate 500 g/ha, Postemergence, scale 0 to 10, 0 no effect, 10 complete control
[5] = Rate 62 g/ha, flood test species, Pre-emergence, visual evaluation after twelve to sixteen days
[6] = Rate 125 g/ha, under heading Pre-emergence, flood test species, visual evaluation after twelve to sixteen days
[7] = Rate 250 g/ha, Pre-emergence, flood-test species, scale 0 to 10, 0 is no effect, 10 is complete control
[8] = Rate 500 g/ha, Pre-emergence, flood test species, scale 0 to 10 (0 no effect, 10 complete control)

## CCOc1nc(C(F)(F)F)c(Cn2c(=O)on(C(=O)N(c3ccccc3)C(C)C)c2=O)s1 [Compound 379]
Wild oat; [1]
  Plant response rating, Wild oats: 0
Wild oat; [2]
  Plant response rating, Wild oats: 0
Wild oat; [3]
  Plant response rating, Wild oats: 0
Wild oat; Preemergence, Rate 125 g/ha
  Wild oats plant response rating (0 to 10 scale): 0
Wild oat; Preemergence, Rate 250 g/ha
  Wild oats plant response rating: 0
Wild oat; Preemergence, Rate 500 g/ha
  Wild oats plant response rating: 0
Wild oat; Rate 62 g/ha, Postemergence
  Wild oats plant response rating: 0
Wild oat; [4]
  Plant response rating, Wild oats: 0
Giant foxtail; [1]
  Plant response rating, Giant foxtail: 0
Giant foxtail; [2]
  Plant response rating, Giant foxtail: 2
Giant foxtail; [3]
  Plant response rating, Giant foxtail: 0
Giant foxtail; Preemergence, Rate 125 g/ha
  Giant foxtail plant response rating (0 to 10 scale): 1
Giant foxtail; Preemergence, Rate 250 g/ha
  Giant foxtail plant response rating: 6
Giant foxtail; Preemergence, Rate 500 g/ha
  Giant foxtail plant response rating: 9
Giant foxtail; Rate 62 g/ha, Postemergence
  Giant foxtail plant response rating: 0
Giant foxtail; [4]
  Plant response rating, Giant foxtail: 7
cocklebur; [1]
  Plant response rating, Cocklebur: 0
cocklebur; [2]
  Plant response rating, Cocklebur: 0
cocklebur; [3]
  Plant response rating, Cocklebur: 0
cocklebur; Preemergence, Rate 125 g/ha
  Cocklebur plant response rating (0 to 10 scale): 0
cocklebur; Preemergence, Rate 250 g/ha
  Cocklebur plant response rating: 0
cocklebur; Preemergence, Rate 500 g/ha
  Cocklebur plant response rating: 0
cocklebur; Rate 62 g/ha, Postemergence
  Cocklebur plant response rating: 0
cocklebur; [4]
  Plant response rating, Cocklebur: 0
velvetleaf; [1]
  Plant response rating, Velvetleaf: 0
velvetleaf; [2]
  Plant response rating, Velvetleaf: 0
velvetleaf; [3]
  Plant response rating, Velvetleaf: 0
velvetleaf; Preemergence, Rate 125 g/ha
  Velvetleaf plant response rating (0 to 10 scale): 0
velvetleaf; Preemergence, Rate 250 g/ha
  Velvetleaf plant response rating: 0
velvetleaf; Preemergence, Rate 500 g/ha
  Velvetleaf plant response rating: 0
velvetleaf; Rate 62 g/ha, Postemergence
  Velvetleaf plant response rating: 0
velvetleaf; [4]
  Plant response rating, Velvetleaf: 0
blackgrass; [1]
  Plant response rating, Blackgrass: 0
blackgrass; [2]
  Plant response rating, Blackgrass: 0
blackgrass; [3]
  Plant response rating, Blackgrass: 0
blackgrass; Preemergence, Rate 125 g/ha
  Blackgrass plant response rating (0 to 10 scale): 0
blackgrass; Preemergence, Rate 250 g/ha
  Blackgrass plant response rating: 0
blackgrass; Preemergence, Rate 500 g/ha
  Blackgrass plant response rating: 0
blackgrass; Rate 62 g/ha, Postemergence
  Blackgrass plant response rating: 0
blackgrass; [4]
  Plant response rating, Blackgrass: 0
corn; [1]
  Plant response rating, Corn: 0
corn; [2]
  Plant response rating, Corn: 0
corn; [3]
  Plant response rating, Corn: 0
corn; Preemergence, Rate 125 g/ha
  Corn plant response rating (0 to 10 scale): 0
corn; Preemergence, Rate 250 g/ha
  Corn plant response rating: 0
corn; Preemergence, Rate 500 g/ha
  Corn plant response rating: 0
corn; Rate 62 g/ha, Postemergence
  Corn plant response rating: 0
corn; [4]
  Plant response rating, Corn: 0
rape; [1]
  Plant response rating, Rape: 0
rape; [2]
  Plant response rating, Rape: 0
rape; [3]
  Plant response rating, Rape: 0
rape; Preemergence, Rate 125 g/ha
  Rape plant response rating (0 to 10 scale): 0
rape; Preemergence, Rate 250 g/ha
  Rape plant response rating: 0
rape; Preemergence, Rate 500 g/ha
  Rape plant response rating: 0
rape; Rate 62 g/ha, Postemergence
  Rape plant response rating: 0
rape; [4]
  Plant response rating, Rape: 0
Sugar beet; [1]
  Plant response rating, Sugarbeets: 0
Sugar beet; [2]
  Plant response rating, Sugarbeets: 0
Sugar beet; [3]
  Plant response rating, Sugarbeets: 0
Sugar beet; Preemergence, Rate 125 g/ha
  Sugarbeets plant response rating (0 to 10 scale): 0
Sugar beet; Preemergence, Rate 250 g/ha
  Sugarbeets plant response rating: 0
Sugar beet; Preemergence, Rate 500 g/ha
  Sugarbeets plant response rating: 0
Sugar beet; Rate 62 g/ha, Postemergence
  Sugarbeets plant response rating: 0
Sugar beet; [4]
  Plant response rating, Sugarbeets: 0
Smallflower flatsedge; [5]
  Plant response rating, S. Flatsedge (0 to 10 scale, 0 is no effect, 10 is complete control): 0
Smallflower flatsedge; [6]
  S. Flatsedge plant response rating (0 to 10 scale, 0 is no effect, 10 is complete control): 0
Smallflower flatsedge; [7]
  S. Flatsedge plant response rating: 0
Smallflower flatsedge; [8]
  S. Flatsedge plant response rating: 0
bamyardgrass; [5]
  Plant response rating, Barnyardgrass (0 to 10 scale, 0 is no effect, 10 is complete control): 0
bamyardgrass; [6]
  Barnyardgrass plant response rating (0 to 10 scale, 0 is no effect, 10 is complete control): 0
bamyardgrass; [7]
  Barnyardgrass plant response rating: 0
bamyardgrass; [8]
  Barnyardgrass plant response rating: 0
Surinam grass; [1]
  Plant response rating, B. signalgrass: 0
Surinam grass; [2]
  Plant response rating, B. signalgrass: 0
Surinam grass; [3]
  Plant response rating, B. signalgrass: 0
Surinam grass; Preemergence, Rate 125 g/ha
  B. signalgrass plant response rating (0 to 10 scale, 0 is no effect, 10 is complete control): 0
Surinam grass; Preemergence, Rate 250 g/ha
  B. signalgrass plant response rating: 0
Surinam grass; Preemergence, Rate 500 g/ha
  B. signalgrass plant response rating: 0
Surinam grass; Rate 62 g/ha, Postemergence
  B. signalgrass plant response rating: 0
Surinam grass; [4]
  Plant response rating, B. signalgrass: 0
pigweed; [1]
  Plant response rating, Redroot pigweed: 0
pigweed; [2]
  Plant response rating, Redroot pigweed: 1
pigweed; [3]
  Plant response rating, Redroot pigweed: 0
pigweed; Preemergence, Rate 125 g/ha
  Redroot pigweed plant response rating (0 to 10 scale): 0
pigweed; Preemergence, Rate 250 g/ha
  Redroot pigweed plant response rating: 0
pigweed; Preemergence, Rate 500 g/ha
  Redroot pigweed plant response rating: 0
pigweed; Rate 62 g/ha, Postemergence
  Redroot pigweed plant response rating: 0
pigweed; [4]
  Plant response rating, Redroot pigweed: 1
crabgrass; [1]
  Plant response rating, Crabgrass: 0
crabgrass; [2]
  Plant response rating, Crabgrass: 0
crabgrass; [3]
  Plant response rating, Crabgrass: 0
crabgrass; Preemergence, Rate 125 g/ha
  Crabgrass plant response rating (0 to 10 scale): 0
crabgrass; Preemergence, Rate 250 g/ha
  Crabgrass plant response rating: 7
crabgrass; Preemergence, Rate 500 g/ha
  Crabgrass plant response rating: 8
crabgrass; Rate 62 g/ha, Postemergence
  Crabgrass plant response rating: 0
crabgrass; [4]
  Plant response rating, Crabgrass: 0
morningglory; [1]
  Plant response rating, Morningglory: 7
morningglory; [2]
  Plant response rating, Morningglory: 8
morningglory; [3]
  Plant response rating, Morningglory: 0
morningglory; Preemergence, Rate 125 g/ha
  Morningglory plant response rating (0 to 10 scale): 0
morningglory; Preemergence, Rate 250 g/ha
  Morningglory plant response rating: 0
morningglory; Preemergence, Rate 500 g/ha
  Morningglory plant response rating: 0
morningglory; Rate 62 g/ha, Postemergence
  Morningglory plant response rating: 5
morningglory; [4]
  Plant response rating, Morningglory: 10
soybean; [1]
  Plant response rating, Soybean: 1
soybean; [2]
  Plant response rating, Soybean: 1
soybean; [3]
  Plant response rating, Soybean: 0
soybean; Preemergence, Rate 125 g/ha
  Soybean plant response rating (0 to 10 scale): 0
soybean; Preemergence, Rate 250 g/ha
  Soybean plant response rating: 0
soybean; Preemergence, Rate 500 g/ha
  Soybean plant response rating: 0
soybean; Rate 62 g/ha, Postemergence
  Soybean plant response rating: 1
soybean; [4]
  Plant response rating, Soybean: 2
Purple nutsedge; [1]
  Plant response rating, Nutsedge: 0
Purple nutsedge; [2]
  Plant response rating, Nutsedge: 0
Purple nutsedge; [3]
  Plant response rating, Nutsedge: 0
Purple nutsedge; Preemergence, Rate 125 g/ha
  Nutsedge plant response rating (0 to 10 scale): 0
Purple nutsedge; Preemergence, Rate 250 g/ha
  Nutsedge plant response rating: 0
Purple nutsedge; Preemergence, Rate 500 g/ha
  Nutsedge plant response rating: 0
Purple nutsedge; Rate 62 g/ha, Postemergence
  Nutsedge plant response rating: 0
Purple nutsedge; [4]
  Plant response rating, Nutsedge: 0
